Test results published in PubChem BioAssay AID1902 (Broad Institute, 2009).
Active and inactive are the calls of the source.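 How the source made its calls: active means EC50 no more than a set limit of log units above the highest dose; inactive means the rest.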

The compounds below were run against S. pyogenes SKKanGAS, kanamycin survival, BacTiterGlo, 6 h (assay: SKKanGAS survival reduction under kanamycin, dose response, streptokinase promoter inhibitor project, SKKanGAS strain, luminescence, dose confirmation (AID 1902);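 further: lower survival reflects blocked streptokinase promoter driving kanamycin resistance gene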).
Work on `O=C(CCc1ccccc1)Nc1nnc(-c2ccc3c(c2)CCCC3)o1` yielded an EC50 of 1.59 µM. With `Cc1ccc(NS(=O)(=O)c2ccc(C3CCCCC3)cc2)cc1` the EC50 was 4.32 µM. Work on `O=C(N/N=C\c1c(O)ccc2ccccc12)c1cncc(Br)c1` yielded an EC50 of 1.31 µM. Work on `Cc1cccc(Cn2nc(C(C)(C)C)cc2C(=O)Nc2ccc(F)cc2)c1` yielded an EC50 of 3.95 µM. In the case of `O=C(NNC(=O)c1cc(-c2ccc(Cl)cc2Cl)nc2ccccc12)Nc1ccccc1`, the EC50 is reported as 3.04 µM. `CCN1CCN(Cc2ccc(NC(=O)c3ccc(C)c(NC(=O)C(=O)c4c[nH]c5ccccc45)c3)cc2C(F)(F)F)CC1` showed an EC50 of 3.34 µM. With `CCC(=O)N1N=C(c2c(O)n(C)c(=O)n(C)c2=O)CC1c1ccccc1` (configuration not stated) the EC50 was 2.42 µM. In the case of `O=C(/C=C/c1cccs1)NC(=S)NNC(=O)Cc1cccs1`, the EC50 is reported as 2.56 µM. `Brc1ccccc1C1Nc2cccc3cccc(c23)N1` was tested, and the EC50 was 5.03 µM. Work on `O=C(N/N=C/c1sc2ccccc2c1O)c1ccccc1` yielded an EC50 of 0.929 µM. With `CCOc1ccc(NS(=O)(=O)c2cc(NC(=O)c3ccc(C)cc3)ccc2Cl)cc1` the EC50 was 3.72 µM. `CCCN(CCC)S(=O)(=O)c1ccc(C(=O)Nc2nnc(-c3cc(OC)cc(OC)c3)o2)cc1` gave an EC50 of 0.192 µM. Compound `CCc1c(C)nc2cc(-c3ccc(OC)c(OC)c3)nn2c1N1CCC(C)CC1` has an EC50 of 7.56 µM. `Cc1ccc(OCC(=O)Nc2nc(-c3ccccn3)cs2)c(C)c1` was tested, and the EC50 was 1.99 µM. For `Clc1ccc2nc(-c3ccccn3)c(Nc3ccc4c(c3)OCO4)n2c1`, the EC50 was 6.99 µM. `CC12CCC(c3c(C(=O)Nc4nccs4)nn(-c4ccccc4)c31)C2(C)C` (configuration not stated) was tested, and the EC50 was 3.4 µM. Work on `CC1CCc2c(sc3nc(C(C)(C)C)nc(N4CCN(C(=O)CCl)CC4)c23)C1` (configuration not stated) yielded an EC50 of 3.6 µM. With `Cc1cc(C)c(NC(=O)c2oc3ccccc3c2COc2ccccc2)c(C)c1` the EC50 was 14.8 µM. In the case of `O=C1c2ccc3c4c(ccc(c24)C(=O)N1c1cccc(O)c1)C(=O)N(c1cccc(O)c1)C3=O`, the EC50 is reported as 1.27 µM. `CCCOc1ccc(/C(O)=C2/C(=O)C(=O)N(c3ccccn3)C2c2ccc(OC)cc2)cc1C` (configuration not stated) showed an EC50 of 6.28 µM. `C/C(=N\NC(=O)CSc1nc(C)[nH]c1[N+](=O)[O-])c1ccc(F)cc1` was tested, and the EC50 was > 15 µM (inactive). Work on `CCOC(=O)c1cnn(-c2nc(-c3ccccc3)cs2)c1C(F)(F)F` yielded an EC50 of 5.29 µM. In the case of `Cc1cccc(-c2nnc(NC(=O)c3ccc(Cl)cc3)o2)c1`, the EC50 is reported as 0.097 µM. With `O=S(=O)(Nc1c(S(=O)(=O)c2ccccc2)c2nc3ccccc3nc2n1C1CCCCC1)c1ccccc1` the EC50 was 2.71 µM. For `c1ccc(N(c2ccccc2)c2nc(N3CCCC3)nc(-n3ccnc3)n2)cc1`, the EC50 was 6.12 µM. For `FC(F)(F)Oc1ccc(NC(=S)Nc2ccc(OC(F)(F)F)cc2)cc1`, the EC50 was 6.49 µM. `CCOc1ccc(-c2nnc3ccc(SC(C)C)nn23)cc1` showed an EC50 of 2.15 µM. Work on `CN1CCN(NC(=O)Nc2cc(Cl)cc(Cl)c2)CC1` yielded an EC50 of 3.72 µM. Work on `O=C(NNC(=S)NC(=O)c1ccccc1)c1ccc([N+](=O)[O-])cc1` yielded an EC50 of 3.23 µM. With `COC(=O)[C@@]12CCCN1[C@H](c1ccc(-c3cccc(Cl)c3)c(OC)c1)[C@H]1C(=O)N(C)C(=O)[C@H]12` the EC50 was > 15 µM (inactive). In the case of `COc1cc(C(=O)NNC(=S)NC(=O)c2ccc(F)cc2)cc(OC)c1OC`, the EC50 is reported as 0.989 µM. For `FC(F)(F)c1cccc(-c2cc3ccccc3nc2N2CCCC2)c1`, the EC50 was 3.6 µM. Work on `Cc1cc(C)c2nc(NNC(=O)c3ccc(S(=O)(=O)N4CCc5ccccc5C4)cc3)sc2c1` yielded an EC50 of 0.538 µM. `CCOc1cccc(/C=N/Nc2ccc(S(=O)(=O)N(CC)CC)cn2)c1O` showed an EC50 of 2.94 µM. Work on `Cc1ccc(C)c(-c2nnc(NC(=O)CCS(=O)(=O)c3ccccc3)o2)c1` yielded an EC50 of 8.64 µM. `O=C(O)c1ccc(-c2nc(-c3ccc(Cl)c(Cl)c3)cs2)cc1` showed an EC50 of 3.82 µM. Work on `CC(C)c1nc(NCc2ccccc2)c(C#N)c2c1CCCC2` yielded an EC50 of 3.55 µM. For `Cc1cc(Oc2ccc(-c3ccccc3)cc2)nc(N2CCOCC2)n1`, the EC50 was 5.71 µM. Compound `NS(=O)(=O)c1ccc(N2N=C(c3ccc(Br)cc3)CC2c2ccc(F)cc2)cc1` (configuration not stated) has an EC50 of 2.21 µM. Work on `C=C(C)[C@@H]1CCC2(C(=O)O)CC[C@]3(C)[C@H](CC[C@@H]4[C@@]5(C)CCC(=O)C(C)(C)[C@@H]5CC[C@]43C)[C@@H]12` (some centres not stated) yielded an EC50 of 1.85 µM. In the case of `Oc1ccc(N=Nc2ccc3c(c2)OCCO3)c2cccnc12`, the EC50 is reported as 0.257 µM. In the case of `CC(C)(C)c1ccc(OCC(O)CS(=O)(=O)c2ccccn2)cc1` (configuration not stated), the EC50 is reported as > 15 µM (inactive). With `COc1cc(OC)c2cc(C(=O)N/N=C/c3ccccc3O)[nH]c2c1` the EC50 was 1.1 µM. With `COc1ccccc1NC(=O)C(=O)NNC(=O)COc1ccc2ccccc2c1` the EC50 was 2.2 µM. Compound `Cc1ccnc(NC(c2ccsc2)c2ccc3ccc(C)nc3c2O)c1` (configuration not stated) has an EC50 of 11.7 µM. In the case of `CC(/C=C1\SC(=S)N(NS(=O)(=O)c2ccc(C)cc2)C1=O)=C\c1ccccc1`, the EC50 is reported as 2.88 µM. `CCCC(=O)NC(c1ccc2c(c1)OCO2)c1cc(Cl)c2cccnc2c1O` (configuration not stated) was tested, and the EC50 was 1.17 µM. Work on `CCC(CC)c1nn2c(N)c(/C=C3\C(C)=Nc4ccccc43)c(=O)nc2s1` yielded an EC50 of 2.57 µM. `O=C(COc1ccc(Cl)cc1Cl)Nc1ccc(C(=O)Nc2ccccc2C(=O)O)cc1` gave an EC50 of 2.3 µM. For `COc1cccc(OC)c1C(=O)Nc1cc(C)nn1-c1nc2ccccc2[nH]1`, the EC50 was 6.26 µM. In the case of `O=C(Nc1nc(-c2ccccn2)cs1)c1ncc(Cl)c(Cl)c1Cl`, the EC50 is reported as 0.771 µM. For `Cc1ccc(NC(=O)c2cccc(OCc3c(C)noc3C)c2)cc1S(=O)(=O)Nc1ccccc1Cl`, the EC50 was 7.39 µM. For `COc1cccc(C(=O)NC(=S)Nc2ccccc2N2CCCCC2)c1`, the EC50 was > 15 µM (inactive). For `Cc1ccccc1-c1cc(-c2ccccc2O)n[nH]1`, the EC50 was 12.3 µM. With `Cc1ccccc1-n1cnc2cc(NCc3cccs3)ccc21` the EC50 was 4.69 µM. `Cc1ccc(C(=O)NC(=S)NNC(=O)COc2ccccc2C)cc1` was tested, and the EC50 was 0.161 µM. For `O=C(COc1cccc(Cl)c1)Nc1ccccc1N1CCCCC1`, the EC50 was 5.29 µM. With `N#Cc1c(-c2ccccc2)nc(SCc2cccc(C(F)(F)F)c2)[nH]c1=O` the EC50 was 1.97 µM. For `C=CCn1c(N)c(C(=O)Nc2cccc(C)c2)c2nc3ccccc3nc21`, the EC50 was 3.4 µM. Compound `CC(C)C[C@H](NC(=O)c1nc[nH]c1C(=O)N[C@@H](CC(C)C)C(=O)OC(C)(C)C)C(=O)OCc1ccccc1` has an EC50 of 1.45 µM. `O=C(Nc1nnc(-c2ccc(Cl)cc2)o1)c1ccccc1Br` gave an EC50 of 1.59 µM. Work on `CC(Oc1ccc(Cl)cc1Cl)C(=O)Nc1ccc(S(=O)(=O)Nc2cnc3ccccc3n2)cc1` (configuration not stated) yielded an EC50 of 3.88 µM. In the case of `COc1cc(C(=O)NC(=S)Nc2ccc(Cc3ccncc3)cc2)cc(OC)c1OC`, the EC50 is reported as 2.45 µM. `CN(C)c1ccc(/C=C/c2ccc3ccccc3[n+]2C)cc1` showed an EC50 of 7.2 µM. Compound `Clc1ccc(CO/N=C(\Cn2ccnc2)c2ccc(Cl)cc2Cl)c(Cl)c1` has an EC50 of 1.95 µM. In the case of `Cc1ccc(C(=O)NC(=S)NNC(=O)c2cccc([N+](=O)[O-])c2)cc1`, the EC50 is reported as 1.69 µM. For `O=C(Nc1nnc(SCc2ccc(F)cc2)s1)c1ccccn1`, the EC50 was 0.382 µM. `COc1ccc(O)c(-c2cc(-c3cccc(Br)c3)n[nH]2)c1` gave an EC50 of 9.97 µM. Work on `O=C(O)CN1C(=O)/C(=C\c2ccccc2OCc2ccc(Cl)cc2Cl)SC1=S` yielded an EC50 of 2.73 µM. For `Cc1ccc(N/N=C2\CS(=O)(=O)N(C)c3ccsc32)cc1`, the EC50 was 1.49 µM. `O=C(CSc1nnc(CNC(=O)c2ccc(F)cc2)o1)NCc1ccccc1` was tested, and the EC50 was > 15 µM (inactive). `O=C(Nc1nc(-c2ccccn2)cs1)c1cccc(-n2cnnn2)c1` showed an EC50 of 2.3 µM. `Oc1c(CN2CCc3ccccc3C2)cc(Cl)c2cccnc12` was tested, and the EC50 was 2.15 µM. For `C(=N\Nc1ncnc2sc3c(c12)CCC3)/c1cccs1`, the EC50 was 10.2 µM. With `Cc1cccc(OCC(=O)Nc2ccncc2)c1` the EC50 was > 15 µM (inactive). `O=C(NC(=S)N1CCN(c2nc(-c3ccccc3)cs2)CC1)c1cccnc1` showed an EC50 of 4.08 µM. In the case of `CCCCn1c(SCC(=O)c2ccccc2)nc2c1c(=O)[nH]c(=O)n2C`, the EC50 is reported as 3.43 µM.
